Here are results for 11 molecules from US20250129095A1, “ANNULATED 2-AMINO-3-CYANO THIOPHENES AND DERIVATIVES FOR THE TREATMENT OF CANCER” (Boehringer Ingelheim Int'l GmbH Corp., priority 2021, published 2025).

The target in series [1] is T1, KRAS (G12V)::SOS1 (Homo sapiens, UniProt P01116, C118S/G12V).
T1 construct: KRAS (G12V) 1-169, N-terminal 6His-tag for purification, cleaved off; 6His-tag (N, cleaved yes); TEV cleavage site; made in house
As to the kind of experiment: KRAS::SOS1 AlphaScreen binding assay, KRAS G12V. The source says:
(§1) This assay can be used to examine the potency with which compounds according to the invention binding to (mutated) KRAS inhibit the protein-protein interaction between SOS1 and (mutated) KRAS e.g., KRAS WT, KRAS G12C, KRAS G12D, KRAS G12V, KRAS G13D. […] Low IC50 values in this assay setting are indicative of strong inhibition of protein-protein interaction between SOS1 and KRAS:
(§2) These assays measure the inhibitory effect of compounds on KRAS mutant protein-protein interactions using the Alpha Screen technology by Perkin Elmer
(§3) The following (mutant) enzyme forms of KRAS and interacting proteins are used in these assays at the given concentrations: • KRAS (G12D) 1-169, N-terminal 6His-tag, C-terminal avi-tag (Xtal BioStructures, Inc.); final assay concentration 10 nM and SOS1 564-1049, N-terminal 229 GST-tag, TEV cleavage site (Viva Biotech Ltd); final assay concentration 5 nM; • KRAS (G12C) 1-169, N-terminal 6His-tag for purification, cleaved off, C-terminal avi-tag, biotinylated, mutations: C51S, C80L, C118S (in house); final assay concentration 7.5 nM and SOS1 564-1049, N-terminal 229 GST-tag, TEV cleavage site (Viva Biotech Ltd); final assay concentration 5 nM; • KRAS (G12V) 1-169, N-terminal 6His-tag for purification, cleaved off, C-terminal avi-tag, biotinylated, TEV cleavage site, mutation: C118S, GDP loaded (in house); final assay concentration 10 nM and SOS1 564-1049, N-terminal 229 GST-tag, TEV cleavage site (Viva Biotech Ltd); final assay concentration 10 nM; • KRAS (G13D) 1-169, N-terminal 6His-tag for purification, cleaved off, C-terminal avi-tag, biotinylated, TEV cleavage site, mutation: C118S, GDP loaded (in house); final assay concentration 10 nM and SOS1 564-1049, N-terminal 229 GST-tag, TEV cleavage site (Viva Biotech Ltd); final assay concentration 10 nM; • KRAS (WT) 1-169, N-terminal 6His-tag for purification, cleaved off, C-terminal avi-tag, biotinylated, TEV cleavage site, mutation: C118S, GDP loaded (in house); final assay concentration 10 nM and SOS1 564-1049, N-terminal 229 GST-tag, TEV cleavage site (Viva Biotech Ltd); final assay concentration 10 nM.
(§4) Test compounds dissolved in DMSO are dispensed onto assay plates (Proxiplate 384 PLUS, white, PerkinElmer; 6008289) using an Access Labcyte Workstation with the Labcyte Echo 55×. For the chosen highest assay concentration of 100 μM, 150 nL of compound solution are transferred from a 10 mM DMSO compound stock solution. A series of eleven fivefold dilutions per compound are transferred to the assay plate, compound dilutions are tested in duplicates. DMSO are added as backfill to a total volume of 150 nL.
(§5) The assays run on a fully automated robotic system in a darkened room below 100 Lux. To 150 nl of compound dilution 10 μl of a mix including KRAS mutant protein, SOS1 (final assay concentrations see above) and GDP nucleotide (Sigma G7127; final assay concentration 10 μM) in assay buffer (1×PBS, 0.1% BSA, 0.05% Tween 20) are added into columns 1-24.
(§6) After 30 minutes incubation time 5 μl of Alpha Screen bead mix in assay buffer are added into columns 1-23. Bead mix consists of AlphaLISA Glutathione Acceptor Beads (PerkinElmer, Cat No AL109) and AlphaScreen Streptavidin Donor Beads (PerkinElmer Cat No 6760002) in assay buffer at a final assay concentration of 10 μg/ml each.
(§7) Plates are kept at room temperature in a darkened incubator. After an additional 60 minutes incubation time the signal is measured in a PerkinElmer Envision HTS Multilabel Reader using the AlphaScreen specs from PerkinElmer.
(§8) Each plate contains up to 16 wells of a negative control depending on the dilution procedure (platewise or serial) (DMSO instead of test compound; with KRAS mutant::SOS1 GDP mix and bead mix; column 23) and 16wells of a positive control (DMSO instead of test compound; with KRAS mutant::SOS1 GDP mix w/o bead mix; column 24).
(§9) As internal control known inhibitors of KRAS mutant::SOS1 interaction can be measured on each compound plate. […]
Background: Alpha assays give light when donor and acceptor beads are brought close together.

Series [2] can be described thus: Caco-2 assay. In kind it is in vitro ADME. Conditions: human, 10 μM test compound, pH 7.4; for Papp A→B at 90 min, 10 μM: Caco-2, apical to basolateral (a-b) permeability, read-out: Caco PappAB; for efflux ratio at 90 min, 10 μM: Caco-2 efflux ratio PappBA/PappAB, read-out: Caco ER. The text has this:
The assay provides information on the potential of a compound to pass the cell membrane, on the extent of oral absorption as well as on whether the compound is actively transported by uptake and/or efflux transporters. Permeability measurements across polarized, confluent Caco-2 cell monolayers grown on permeable filter supports (Corning, catalog #3391) are used. […] The receiver and donor compartments contain 0.25% bovine serum albumine (BSA) in assay buffer. Passive diffusion and/or active transport of compounds across the monolayer is measured in both apical to basolateral (a-b) and basolateral to apical (b-a) direction. a-b permeability (PappAB) represents drug absorption from the intestine into the blood and b-a permeability (PappBA) drug secretion from the blood back into the intestine via both passive permeability as well as active transport mechanisms mediated by efflux and uptake transporters that are expressed on the Caco-2 cells. After a pre-incubation of 25-30 min at 37° C., at predefined time points (0, 30, 60 and 90 min), samples were taken from the receiver and donor compartment, respectively.
Concentrations of test compounds in samples were measured by HPLC/MS/MS, samples from the donor compartment were diluted 1:50 (v:v) with assay buffer, samples from receiver compartment were measured without dilution.
Apparent permeabilities in a-b (PappAB) and b-a (PappBA) directions are calculated according to the formula:
[formula] • Vrec [mL]: buffer volume in receiver compartment • Cdon [pmol/mL]: concentration of test compound in donor compartment at t=0 • ΔCrec: difference between concentrations of test compound in receiver compartment at start and end of incubation time • Δt: Incubation time • Vrec·ΔCrec/Δt [[…]]: Amount of compound transferred to receiver compartment per time • A [cm^2]: filter surface
Caco-2 efflux ratios (ER) are calculated as the ratio of PappBA/PappAB.
Background: Passage across Caco-2 layers is used to estimate intestinal permeability.

Series [3] has as its target T2, KRAS (G12D)::SOS1 (Homo sapiens, UniProt P01116, G12D).
T2 construct: KRAS (G12D) 1-169, N-terminal 6His-tag, C-terminal avi-tag; 6His-tag (N); purchased Xtal BioStructures, Inc. (KRAS); Viva Biotech Ltd (SOS1)
The experiment in a line: KRAS::SOS1 AlphaScreen binding assay, KRAS G12D. Conditions: read-out: KRASG12D IC50.
Excerpt: as §1, §2, §3, §4, §5, §6, §7, §8, §9

T2 sequence (P01116 1-169 isoform P01116-2 G12D): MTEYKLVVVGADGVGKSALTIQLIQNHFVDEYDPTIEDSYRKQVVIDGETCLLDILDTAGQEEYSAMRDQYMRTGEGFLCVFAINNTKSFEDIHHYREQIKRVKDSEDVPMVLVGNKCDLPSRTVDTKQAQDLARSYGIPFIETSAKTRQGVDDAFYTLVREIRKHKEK
T1 sequence (P01116 1-169 isoform P01116-2 G12V/C118S): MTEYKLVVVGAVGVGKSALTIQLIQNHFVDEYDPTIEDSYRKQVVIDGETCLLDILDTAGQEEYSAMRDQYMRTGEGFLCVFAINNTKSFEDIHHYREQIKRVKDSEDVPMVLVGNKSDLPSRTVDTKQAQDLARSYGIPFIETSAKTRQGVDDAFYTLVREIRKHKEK

`C[C@H](Oc1cc(Nc2ncccn2)nc(-c2noc3c2CCC[C@@]32CCCc3sc(N)c(C#N)c32)n1)[C@@H]1CCCN1C` [II-17]: the IC50 in series [1] and in series [3] was 2 nM in each case. For the same molecule, in series [2], the Papp A→B at 90 min, 10 μM was found to be 3.9 ×10⁻⁶ cm/s. In addition, in series [2], the efflux ratio at 90 min, 10 μM turned out to be 5.
In the case of `C[C@H](Oc1cc(OCC2(N(C)C)COC2)nc(-c2onc3c2CCC[C@@]32CCCc3sc(N)c(C#N)c32)n1)[C@@H]1CCCN1C` [Example I-8], the IC50 in series [1] was 3 nM; in series [3], 2 nM.
`C[C@H](Oc1cc(OCC2(N(C)C)COC2)nc(-c2noc3c2CCC[C@@]32CCCc3sc(N)c(C#N)c32)n1)[C@@H]1CCCN1C` [II-22] showed an IC50 in series [1] of 2 nM. Also, in series [2], the Papp A→B at 90 min, 10 μM was 2.6 ×10⁻⁶ cm/s and the efflux ratio at 90 min, 10 μM is 15.5. Further, the IC50 in series [3] amounted to 1 nM.
`COc1c(OCC2(N(C)C)COC2)nc(-c2noc3c2CCC[C@@]32CCCc3sc(N)c(C#N)c32)nc1O[C@@H](C)[C@@H]1CCCN1C` [II-25]: the IC50 in series [1] is 2 nM. Moreover, in series [2], the Papp A→B at 90 min, 10 μM was 2.5 ×10⁻⁶ cm/s and the efflux ratio at 90 min, 10 μM came to 13.6. For the same molecule, the IC50 in series [3] worked out at 1 nM.
With `C[C@H](Oc1cc(O[C@@H]2CNC[C@@H]2F)nc(-c2noc3c2CCC[C@@]32CCCc3sc(N)c(C#N)c32)n1)[C@@H]1CCCN1C` [II-29], in series [1], the IC50 came to 2 nM. Also, in series [2], the Papp A→B at 90 min, 10 μM was found to be 0.9 ×10⁻⁶ cm/s and the efflux ratio at 90 min, 10 μM was 25.5. In addition, the IC50 in series [3] was found to be 1 nM.
In turn, `C[C@H](Oc1cc(Nc2ncco2)nc(-c2noc3c2CCC[C@@]32CCCc3sc(N)c(C#N)c32)n1)[C@@H]1CCCN1C` [II-13] showed an IC50 in series [1] of 2 nM. Besides, in series [2], the Papp A→B at 90 min, 10 μM was determined as 5.2 ×10⁻⁶ cm/s and the efflux ratio at 90 min, 10 μM stood at 3.1. Besides, the IC50 in series [3] turned out to be 2 nM.
As to `CO[C@@H]1C[C@@H]([C@H](C)Oc2cc(O[C@@H]3CNC3(C)C)nc(-c3noc4c3CCC[C@@]43CCCc4sc(N)c(C#N)c43)n2)N(C)C1` [II-30], the IC50 in series [1] was determined as 2 nM; in series [3] it was 1 nM. Moreover, the Papp A→B at 90 min, 10 μM in series [2] worked out at 0.2 ×10⁻⁶ cm/s. Further, in series [2], the efflux ratio at 90 min, 10 μM was determined as 125.
In series [1], `C[C@H](Oc1cc(O[C@@H]2CNC2(C)C)nc(-c2noc3c2CCC[C@@]32CCCc3sc(N)c(C#N)c32)n1)[C@@H]1C[C@@H](F)CN1C` [II-31] registered an IC50 of 2 nM. For the same molecule, in series [2], the Papp A→B at 90 min, 10 μM worked out at 0.8 ×10⁻⁶ cm/s and the efflux ratio at 90 min, 10 μM came out at 50.7. Moreover, in series [3], the IC50 came to 1 nM.
In turn, `C[C@H](Oc1cc(O[C@@H]2CNC2(C)C)nc(-c2noc3c2CCC[C@@]32CCCc3sc(N)c(C#N)c32)n1)[C@@H]1CCCN1C` [II-9] yielded an IC50 in series [1] of 3 nM. In addition, in series [2], the Papp A→B at 90 min, 10 μM amounted to 0.2 ×10⁻⁶ cm/s and the efflux ratio at 90 min, 10 μM was determined as 132. For the same molecule, in series [3], the half-maximal inhibitory concentration (IC50) is 1 nM.
For `C[C@H](Oc1cc(Oc2cccnc2)nc(-c2onc3c2CCC[C@@]32CCCc3sc(N)c(C#N)c32)n1)[C@@H]1CCCN1C` [Example I-2], the IC50 in series [1] and in series [3] was 1 nM each time.
Consider `C[C@H](Oc1cc(Oc2nccs2)nc(-c2onc3c2CCC[C@@]32CCCc3sc(N)c(C#N)c32)n1)[C@@H]1CCCN1C` [Example I-1], for which the IC50 in series [1] and in series [3] was 2 nM in each case.

As usually defined, the IC50 is the concentration that gives 50% inhibition.
